Read-outs that look alike come from different tables or passages of the source.
Columns and labels:
mGFAP protein = assay: cell-based GFAP protein level assay (cell-based ELISA) in 172.9 cells; design: species or system mouse; settings: for suppression in the protein assay: secondary screen, 10 μM, 48 hours; for % GFAP reductions, mGFAP protein via ELISA: tertiary screen, 48 hr exposure, at the MTDcc
[1] = test system: 2.2 kb human GFAP promoter; assay: hGFAP promoter luciferase activity assay in 172.9 cells (primary astrocytes from dual luciferase transgenic mice); assay type: cell-based; settings: for suppression in the promoter assay: secondary screen, 10 μM, 48 hours; for % GFAP reductions, luciferace expression from hGFAP promoter: tertiary screen, 48 hr exposure, at the MTDcc
Protocol: Cell-based assays were performed as four different screens using enriched cortical primary astrocyte cultures developed from transgenic mice expressing both firefly and Renilla luciferase reporter genes were generated. Briefly, the'firefly luciferase was placed under the control of a 2.2 kb human GFAP promoter to monitor GFAP transcription, and the Renilla luciferase was placed under the control of a 0.5 kb human GAPDH (glyceraldehyde 3-phosphate dehydrogenase) promoter to monitor transcription of a housekeeping gene for signal normalization. See section B, below for more detail regarding the development of transgenic mouse strains. Cells used in the following examples (e.g., the cortical primary astrocyte cells termed “172.9 cells,” described below) were developed from the transgenic mice described in section B.
Briefly, the cortices from individual pups were freed of meninges and placed into DMEM (Gibco) without serum, mechanically disassociated into single cells, suspended in medium containing DMEM supplemented with 10% fetal bovine serum (FBS; Hyclone), 100 U/ml penicillin, 100 μg/ml streptomycin (Gibco), seeded into T25 flasks (one brain per flask), and maintained in a humidified 5% CO2 atmosphere at 37° C. […] Medium was changed every 3 days. At 14-16 days in vitro (DIV), the flasks were shaken overnight at 200 rpm to remove oligodendrocytes and microglia. […] The cells were then suspended in DMEM with 10% FBS and plated (“passage 2”) on either 35 mm dishes, […], or 96-well plates (Corning) as needed. Cells were grown for varying days in vitro (DIV) at passage 2 and then used for various experiments. Tissue culture dishes and plates were pre-coated with 100 μg/ml poly-L-lysine for 1 h in a humidified 5% CO2 atmosphere at 37° C., and then allowed to air dry. […] Cell density was measured with the Vi-CELL cell counter (Beckman Coulter) or hemocytometer by the trypan-blue exclusion method. For simplicity, cells are referred to as “172.9 cells.”
Briefly, 172.9 cells were plated on poly-L coated white 96-well plates at a density of 5000 cells per well, in 100 μl DMEM with 10% FBS. At twenty-four hours, cells were exposed to the different compounds at a final concentration of 10 μM (diluted from a 50 mM stock) prepared in new medium (DMEM with 10% FBS). […] After exposure to compounds, luciferase activity in the primary and secondary screenings was determined by adding 30 μl of Bright-Glo™ reagent (Promega) to the 100 μl of media and cells of each well in the white 96-well plates with the Biomek® FX liquid handler (Beckman Coulter). After incubation for 1 minute at room temperature, signals were measured with the Safire 2 plate reader using Magellan™ software (Tecan). Other specific methods and equipment are known in the art and can be used to measure luciferase expression levels. This assay method is termed the “hGFAP promoter luciferase activity assay.” A reduction in luciferase expression as determined by this assay is termed “hGFAP promoter luciferase reduction.” For some assays that were aimed at confirming results of the initial screens, the same amount of Bright-Glo™ reagent was applied to each well in 96-well plates and signals were detected with the GloRunner™ Microplate Luminometer (Turner Biosystems) using the Dual-Glo® luciferase assay according to the manufacturer's recommendations (E1910, Promega).
In the secondary screen, cells were plated in a 96-well plate as described above for the primary screen.
Some compounds were unavailable outside of the library collections, and could not be further tested.
Each compound and concentration was analyzed in quadruplicate wells.
Compounds were tested at eight different concentrations ranging from 0-20 μM. In addition, GFAP protein levels were measured using a sandwich ELISA, which has greater sensitivity and is more accurate than the cell-based ELISA used in the primary screens.

172.9 cells = assay: cell viability (CellTiter-Glo) / MTDcc in 172.9 cells
Protocol: Criterion for acceptable viability was >70% survival.
Cell viability was determined as follows. After exposure to each compound (duplicate wells per compound), 50 μl of CellTitier-Glo Luminescent Cell Viability Assay reagent (G7571, Promega) was added to the 100 μl of media present in each well, and the luminescent signal (reflecting intracellular ATP level) was detected with either a Victor 3-V plate reader (Perkin Elmer) or GloRunner Microplate Luminometer (Turner Biosystems). Cell viability was expressed as a percent of non-treated control cells.
A dose-response curve was created for each compound (0.1, 0.5, 1, 5, 10, 15, 20 μM) using 48 hr exposures. The MTDcc (“maximum tolerated dose—cell culture”) indicates the highest concentration that retained at least 70% cell viability. Each compound and concentration was analyzed in quadruplicate wells. EGCDG: epigallocatechin 3,5-digallate; NPPB: 5-nitro-2-phenylproplyaminobenzoic acid. As used herein, MTDcc refers to the MTD as determined by this assay under the above conditions.

[2] = tertiary screen, 48 hr exposure, 0.1-20 μM, highest concentration that retained at least 70% cell viability

Row | Compound | suppression in the protein assay (mGFAP protein) | suppression in the promoter assay [1] | MTDcc (172.9 cells; [2]) [µM] | % GFAP reductions, mGFAP protein via ELISA (mGFAP protein) [%] | % GFAP reductions, luciferace expression from hGFAP promoter [1] [%] | MTDcc (172.9 cells; mouse, 48 h) [µM] | MTDcc (172.9 cells) [µM]
1 | CCOC(=O)C1=C(COCCN)NC(C)=C(C(=O)OC)C1c1ccccc1Cl (stereo not shown) [amlodipine besylate] | significant suppression | significant suppression | – | – | – | – | –
2 | COc1ccc(C(=O)O)cc1OC [veratic acid] | – | – | >20 | −0.8 | 6 | – | –
3 | NC[C@H]1O[C@H](O[C@H]2[C@H](O)[C@@H](O[C@H]3O[C@H](CO)[C@@H](O)[C@H](N)[C@H]3O)[C@H](N)C[C@@H]2N)[C@H](O)[C@@H](O)[C@@H]1O [kanamycin] | – | – | – | 11.3 | 22 | >20 | –
4 | CN(C)CC/C=C1/c2ccccc2Sc2ccc(Cl)cc21 [chlorprothixene] | – | – | – | −3.6 | 60 | 17.5 | –
5 | CC(C)(CO)[C@@H](O)C(=O)NCCC(=O)O [pantothenic acid] | – | – | – | −3.5 | 6 | >20 | –
6 | CC(NCCc1ccc(O)cc1)C(O)c1ccc(O)cc1 (stereo not shown) [ritodrine] | – | – | – | 5.2 | 16 | >20 | –
7 | CCCCCCCCCCCC1=C(O)C(=O)C=C(O)C1=O [embelin] | – | – | – | 10.8 | 37 | 7.5 | –
8 | C=C(C)[C@@H]1CC[C@]2(C(=O)O)CC[C@]3(C)[C@H](CC[C@@H]4[C@@]5(C)CC[C@H](O)C(C)(C)[C@@H]5CC[C@]43C)[C@@H]12 [betulinic acid] | – | – | – | 6.3 | 13 | >20 | –
9 | CC(=O)Nc1ccc(OC(=O)c2ccccc2O)cc1 [4-acetamidophenyl salicylate] | – | – | – | 8.6 | 17 | >20 | –
10 | methylnorlichexanthone | – | – | >20 | 0.6 | 10 | – | –
11 | Cc1cc(O)c2c(c1)C(=O)c1cccc(O)c1C2=O [chrysophanol] | – | – | 12.5 | 18.6 | 66 | – | –
12 | COc1ccc2c(c1)O[C@@H]1COc3cc(OC)c(OC)cc3[C@@H]1C2=O [mundoserone] | significant suppression | significant suppression | – | 1.6 | 50 | >20 | –
13 | O=C(N[C@H](CO)[C@H](O)c1ccc([N+](=O)[O-])cc1)C(Cl)Cl [chloramphenicol] | – | – | – | 0.9 | 16 | >20 | –
14 | CC(C)(C)c1ccc(C(O)CCCN2CCC(C(O)(c3ccccc3)c3ccccc3)CC2)cc1 (stereo not shown) [terfenadine] | – | – | – | – | 14 | 2.5 | –
15 | NC[C@H]1O[C@H](O[C@H]2[C@H](O)[C@@H](O)[C@H](N)C[C@@H]2N)[C@H](N)[C@@H](O)[C@@H]1O [neamine] | – | – | >20 | −0.8 | 5 | – | –
16 | O=C(O)c1cc([N+](=O)[O-])ccc1NCCCc1ccccc1 [5-nitro-2-phenylproplyaminobenzoic acid] | – | – | >20 | 0.4 | 16 | – | –
17 | OCCN1CCN(CCCN2c3ccccc3Sc3ccc(C(F)(F)F)cc32)CC1 [fluphenazine] | – | – | – | −6.7 | 23 | 7.5 | –
18 | CN(C)/N=N/c1[nH]cnc1C(N)=O [decarbazine] | – | – | – | 2.4 | 7 | >20 | –
19 | CN1CCC(=C2c3ccccc3CC(=O)c3sccc32)CC1 [ketotifen] | – | – | – | 8.6 | 25 | >20 | –
20 | O=C1CCCN1CC#CCN1CCCC1 [oxotremorine] | – | – | >20 | 2.7 | 16 | – | –
21 | COC(=O)[C@H](O)[C@H]1C(C)(C)[C@H](OC(C)=O)[C@@H]2CC3=C4CC(=O)O[C@@H](c5ccoc5)[C@]4(C)CC[C@@H]3[C@@]1(C)C2=O [swietenolide-3-acetate] | – | – | – | 0.7 | 8 | – | >20
22 | CSc1ccc2c(c1)N(CCC1CCCCN1C)c1ccccc1S2 (stereo not shown) [thioridazine] | – | – | – | 17.7 | 37 | 5 | –
23 | CC(=O)OCC(=O)[C@@]12OC(C)(C)O[C@@H]1C[C@H]1[C@@H]3C[C@H](F)C4=CC(=O)C=C[C@]4(C)[C@@]3(F)[C@@H](O)C[C@@]12C [fluccinonide] | – | – | >20 | −2.2 | 28 | – | –
24 | CC1(C)C(=O)C=C[C@]2(C)[C@H]3CC[C@@]4(C)[C@H](c5ccoc5)OC(=O)[C@H]5O[C@]54[C@]3(C)C=C[C@@H]12 [7-desacetoxy-6,7-dehydrogedunin] | significant suppression | significant suppression | – | – | – | – | –
25 | CCOC(=O)C1=C(COCCN)NC(C)=C(C(=O)OC)C1c1ccccc1Cl (stereo not shown) [amlodipine] | – | – | 12.5 | – | 44 | – | –

— patent publication US8372808B2, “Suppression of glial fibrillary acidic protein” (Wisconsin Alumni Research Foundation, priority 2008, dated 2013)
